Results reported in patent publication US5001121A, “Cephalosporin compounds and pharmaceutical compositions thereof” (Mochida Pharmaceutical Co., Ltd., priority 1985, dated 1991).
≈ marks a conversion by molar mass, not a printed value.

Tests used:
[1] = test system: Staphylococcus aureus 242 (methicillin-resistant strain); experiment: Protection ability against systemic infection; assay type: in vivo, ICR mice; conditions: in Mus musculus, iv, 168 h, Table 2-a, i.p. infection, i.v. compound 1 hour later, survival at 1 week, read-out: ED50
Experimental: (§1) Protection ability against systemic infection was determined as follows. An aqueous suspension of test bacteria was intraperitoneally injected into 10 four week old ICR mice. One hour after the infection, test compounds were intravenously administered. The number of surviving mice was counted 1 week after injection to determine the dose at which 50% of the test animals were alive (ED50 :mg/kg).

LD50, Probit method = conditions: in vivo, iv
Experimental: Next, LD50 of representative examples of the compounds of the present invention is shown in Table 3 wherein LD50 was determined in accordance with the Probit method.

Escherichia coli 67 = experiment: Antibacterial activity in vitro, agar plate dilution method (MIC); assay type: cell-based; conditions: Mueller Hinton agar, 10^6 cells/ml, 37° C., 20 hours
Experimental: (§2) Antibacterial activity in vitro was determined in accordance with the agar plate dilution method. A platinum loop each of test bacteria (10^6 cells/ml), cultured in Mueller Hinton broth, was inoculated on Mueller Hinton agar plates which contained test compounds at various concentrations. After cultivating at 37° C. for 20 hours, the minimum inhibitory concentration (MIC μg/ml) was determined.

[2] = test system: Klebsiella pneumoniae IFO3317; experiment: as above; assay type: cell-based; conditions: Mueller Hinton agar, 10^6 cells/ml, 37° C., 20 hours
Experimental: as §2

[3] = test system: Pseudomonas aeruginosa IFO3445; experiment: as above; assay type: cell-based; conditions: Mueller Hinton agar, 10^6 cells/ml, 37° C., 20 hours
Experimental: as §2

[4] = test system: Staphylococcus aureus Smith; experiment: as above; assay type: cell-based; conditions: Mueller Hinton agar, 10^6 cells/ml, 37° C., 20 hours
Experimental: as §2

[5] = test system: Serratia marcescens IFO3759; experiment: as above; assay type: cell-based; conditions: Mueller Hinton agar, 10^6 cells/ml, 37° C., 20 hours
Experimental: as §2

Serratia marcescens 274 = experiment: Protection ability against systemic infection; assay type: in vivo, ICR mice; conditions: in Mus musculus, iv, 168 h, Table 2-b, i.p. infection, i.v. compound 1 hour later, survival at 1 week, read-out: ED50
Experimental: as §1

Row | SMILES | ED50 [1] | LD50 (LD50, Probit method) | MIC (Escherichia coli 67) | MIC [2] | MIC [3] | MIC [4] | MIC [5] | ED50 (Serratia marcescens 274)
1 | Cn1nnnc1SCC1=C(C(=O)O)N2C(=O)[C@@H](NC(=O)[C@H](O)c3ccccc3)[C@H]2SC1 [CMD, Cefamandole, reference compound] | 31 mg/kg |  |  |  |  |  |  | 
2 | Cc1cc(SCC2=C(C(=O)O)N3C(=O)[C@@H](NC(=O)/C(=N\OC(=O)c4cc(O)c(O)c(O)c4)c4csc(N)n4)[C@H]3SC2)n2nc(C(=O)O)nc2n1 [Compound 1, (6R,7R)-7-[2-(2-amino-4-thiazolyl)-2-[Z-(3,4,5-trihydroxybenzoyl)oxyimino]acetamido]-3-[(2-carboxy-5-methyl-s-triazolo[l,5-a]-pyrimidin-7-yl)thiomethyl]-8-oxo-5-thia-l-azabicyclo [4.2.0]oct-2-ene-2-carboxylic acid] |  | > 1000 mg/kg | < 0.05 µg/mL | < 0.05 µg/mL | 3.13 µg/mL (≈ 4.21 µM) | 0.78 µg/mL (≈ 1.05 µM) | < 0.05 µg/mL | 
3 | Cc1cc(=O)n2nc(SCC3=C(C(=O)O)N4C(=O)[C@@H](NC(=O)/C(=N\OC(=O)c5cc(O)c(O)cc5C)c5csc(N)n5)[C@H]4SC3)sc2n1 [Compound 4] |  | > 1000 mg/kg | 0.78 µg/mL (≈ 1.07 µM) | < 0.05 µg/mL | 3.13 µg/mL (≈ 4.28 µM) | 0.39 µg/mL (≈ 0.534 µM) | < 0.05 µg/mL | 
4 | CC(=O)Oc1cc(C(=O)O)c(CO/N=C(\C(=O)N[C@@H]2C(=O)N3C(C(=O)O)=C(CSc4cc(C)nc5nc(C(=O)O)nn45)CS[C@H]23)c2csc(N)n2)cc1O [Compound 5, (6R,7R)-7-[2-(2-amino-4-thiazolyl)-2-[Z-[(4-acetoxy-2-carboxy-5-hydroxyphenyl)-methyl]oxyimino]acetamido]-3-[(2-carboxy-5-methyl-s-triazolo-[1,5-a]pyrimidin-7-yl)thiomethyl]-8-oxo-5-thia-1-azabicyclo[4.2.0]oct-2-ene-2-carboxylic acid] |  |  | < 0.05 µg/mL | < 0.05 µg/mL | 0.2 µg/mL (≈ 0.25 µM) | 1.56 µg/mL (≈ 1.95 µM) | < 0.05 µg/mL | 
5 | Cc1cc(SCC2=C(C(=O)O)N3C(=O)[C@@H](NC(=O)/C(=N\OC(C)(C)C(=O)c4ccc(O)c(O)c4)c4csc(N)n4)[C@H]3SC2)n2nc(C(=O)O)nc2n1 [Compound 6, (6R,7R)-7-[2-(2-amino-4-thiazolyl)-2-[Z-[1-(3,4-dihydroxybenzoyl)-1-methylethyl]oxyimino]acetamido]-3-[(2-carboxy-5-methyl-s-triazolo-[1,5-a]pyrimidin-7-yl)thiomethyl]-8-oxo-5-thia-1-azabicyclo[4.2.0]oct-2-ene-2-carboxylicacid] |  | > 1000 mg/kg | < 0.05 µg/mL | < 0.05 µg/mL | 0.78 µg/mL (≈ 1.01 µM) | 6.25 µg/mL (≈ 8.12 µM) | < 0.05 µg/mL | 
6 | CC(=O)Oc1ccc([C@H](O/N=C(\C(=O)N[C@@H]2C(=O)N3C(C(=O)O)=C(CSc4cc(C)nc5nc(C(=O)O)nn45)CS[C@H]23)c2csc(N)n2)C(=O)O)cc1OC(C)=O [Compound 7, (6R,7R)-7-[2-(2-amino-4-thiazolyl)-2-[Z-[(S)-carboxy(3,4-diacetoxyphenyl)methyl]oxyimino]acetamido]-3-[(2-carboxy-5-methyl-s-triazolo-[1,5-a]pyrimidin-7-yl)thiomethyl]-8-oxo-5-thia-1-azabicyclo[4.2.0]oct-2-ene-2-carboxylic acid] |  |  | 0.2 µg/mL (≈ 0.238 µM) | < 0.05 µg/mL | 1.56 µg/mL (≈ 1.85 µM) |  | 0.1 µg/mL (≈ 0.119 µM) | 
7 | CC(=O)Oc1ccc([C@@H](O/N=C(\C(=O)N[C@@H]2C(=O)N3C(C(=O)O)=C(CSc4cc(C)nc5nc(C(=O)O)nn45)CS[C@H]23)c2csc(N)n2)C(=O)O)cc1OC(C)=O [Compound 8, (6R,7R)-7-[2-(2-amino-4-thiazolyl)-2-[Z-[(R)-carboxy(3,4-diacetoxyphenyl)-methyl]oxyimino]acetamido]-3-[(2-carboxy-5-methyl-s-triazolo[l,5-a]pyrimidin-7-yl)thiomethyl]-8-oxo-5-thia-1-azabicyclo [4.2.0]oct-2-ene-2-carboxyl-acid] |  |  | 0.2 µg/mL (≈ 0.238 µM) | < 0.05 µg/mL | 3.13 µg/mL (≈ 3.72 µM) |  | 0.1 µg/mL (≈ 0.119 µM) | 10.5 mg/kg
8 | Cc1cc(SCC2=C(C(=O)O)N3C(=O)[C@@H](NC(=O)/C(=N\O[C@@H](C(=O)O)c4ccc(O)c(O)c4)c4csc(N)n4)[C@H]3SC2)n2nc(C(=O)O)nc2n1 [Compound 10, (6R,7R)-7-[2-(2-amino-4-thiazolyl)-2-[Z-[(R)-carboxy(3,4-dihydroxyphenyl)-methyl]oxyimino]acetamido]-3-[(2-carboxy-5-methyl-s-triazolo[1,5-a]pyrimidin-7-yl)thiomethyl]-8-oxo-5-thia-1-azabicyclo[4.2.0]oct-2-ene-2-carboxylic acid] |  |  | 0.2 µg/mL (≈ 0.264 µM) | < 0.05 µg/mL | 6.25 µg/mL (≈ 8.25 µM) | 0.78 µg/mL (≈ 1.03 µM) | 0.1 µg/mL (≈ 0.132 µM) | 28.6 mg/kg
9 | Cc1cc(SCC2=C(C(=O)O)N3C(=O)[C@@H](NC(=O)/C(=N\OC(C)(C(=O)O)c4ccc(O)c(O)c4)c4csc(N)n4)[C@H]3SC2)n2nc(C(=O)O)nc2n1 (stereo partly drawn) [Compound 11, (6R,7R)-7-[2-(2-amino-4-thiazolyl)-2-[Z-[1-carboxy-1-(3,4-dihydroxyphenyl)ethyl]oxyimino]acetamido]-3-[(2-carboxy-5-methyl-s-triazolo[1,5-a]pyrimidin-7-yl)thiomethyl]-8-oxo-5-thia-1-azabicyclo[4.2.0]oct-2-ene-2-carboxylic acid] |  |  | < 0.05 µg/mL | < 0.05 µg/mL | 0.78 µg/mL (≈ 1.01 µM) | 0.78 µg/mL (≈ 1.01 µM) | 0.2 µg/mL (≈ 0.259 µM) | 
10 | Cc1cc(SCC2=C(C(=O)O)N3C(=O)[C@@H](NC(=O)/C(=N\OC(C(=O)O)c4cc(O)c(O)c(O)c4)c4csc(N)n4)[C@H]3SC2)n2nc(C(=O)O)nc2n1 (stereo partly drawn) [Compound 12, (6R,7R)-7-[2-(2-amino-4-thiazolyl)-2-[Z-[carboxy(3,4,5-trihydroxyphenyl)-methyl]oxyimino]acetamido]-3-[(2-carboxy-5-methyl-s-triazolo[l,5-a]pyrimidin-7-yl)thiomethyl]-8-oxo-5-thia-l-azabicyclo [4 2.0]oct-2-ene-2-carboxylic acid] |  |  | 1.1 µg/mL (≈ 1.42 µM) | < 0.05 µg/mL | 6.25 µg/mL (≈ 8.08 µM) | 0.78 µg/mL (≈ 1.01 µM) |  | 
11 | Nc1nc(/C(=N/OC(C(=O)O)c2ccc(O)c(O)c2)C(=O)N[C@@H]2C(=O)N3C(C(=O)O)=C(CSc4cc(C(=O)O)c5nnnn5n4)CS[C@H]23)cs1 (stereo partly drawn) [Compound 13, (6R,7R)-7-[2-(2-amino-4-thiazolyl)-2-[Z-[carboxy(3,4-dihydroxyphenyl)methyl]oxyimino]acetamido]-3-[(8-carboxytetrazolo [1,5-b]pyridazin-6-yl)thiomethyl]-8-oxo-5-thia-1-azabicyclo[4.2.0]oct-2-ene-2-carboxylic acid] |  | > 1000 mg/kg | 0.2 µg/mL (≈ 0.269 µM) | < 0.05 µg/mL | 0.78 µg/mL (≈ 1.05 µM) | 1.56 µg/mL (≈ 2.09 µM) | 0.2 µg/mL (≈ 0.269 µM) | 1.05 mg/kg
12 | Nc1nc(/C(=N/OC(C(=O)O)c2ccc(O)c(O)c2)C(=O)N[C@@H]2C(=O)N3C(C(=O)[O-])=C(C[n+]4ccccc4)CS[C@H]23)cs1 (stereo partly drawn) [Compound 14, (6R,7R)-7-[2-(2-amino-4-thiazolyl)-2-[Z-[carboxy(3 4-dihydroxyphenyl)methyl]-oxyimino]acetamido]-3-(pyridiniummethyl)-8-oxo-5-thia-l-azabicyclo[4.2.0]oct-2-ene-2-carboxylate] |  |  | 0.39 µg/mL (≈ 0.622 µM) | 0.1 µg/mL (≈ 0.16 µM) | 1.56 µg/mL (≈ 2.49 µM) | 0.78 µg/mL (≈ 1.24 µM) | 0.39 µg/mL (≈ 0.622 µM) | 
13 | Nc1nc(/C(=N/O[C@H](C(=O)O)c2ccc(O)c(O)c2)C(=O)N[C@@H]2C(=O)N3C(C(=O)[O-])=C(C[n+]4ccccc4)CS[C@H]23)cs1 [Compound 15, (6R,7R)-7-[2-(2-amino-4-thiazolyl)-2-[Z-[(S)-carboxy(3,4-dihydroxyphenyl)methyl]oxyimino]acetamido]-3-(pyridiniummethyl)-8-oxo-5-thia-1-azabicyclo[4.2.0]oct-2-ene-2-carboxylate] |  | > 1000 mg/kg | 0.1 µg/mL (≈ 0.16 µM) | < 0.05 µg/mL | 0.39 µg/mL (≈ 0.622 µM) | 0.78 µg/mL (≈ 1.24 µM) | 0.1 µg/mL (≈ 0.16 µM) | 
14 | Nc1nc(/C(=N/O[C@H](C(=O)O)c2ccc(O)c(O)c2)C(=O)N[C@@H]2C(=O)N3C(C(=O)[O-])=C(C[n+]4cccc5c4CCC5)CS[C@H]23)cs1 [Compound 16, (6R,7R)-7-[2-(2-amino-4-thiazolyl)-2-[Z-[(S)-carboxy(3,4-dihydroxyphenyl)methyl]oxyimino]acetamido]-3-(2,3-cyclopentenopyridiniummethyl)-8-oxo-5-thia-1-azabicyclo [4.2.0]oct-2-ene-2-carboxylate] |  | > 1000 mg/kg | 0.1 µg/mL (≈ 0.15 µM) | < 0.05 µg/mL | 0.39 µg/mL (≈ 0.585 µM) | 0.78 µg/mL (≈ 1.17 µM) | 0.1 µg/mL (≈ 0.15 µM) | 
15 | Cc1cc(SCC2=C(C(=O)O)N3C(=O)[C@@H](NC(=O)C(NC(=O)c4ccc(O)c(O)c4)c4csc(N)n4)[C@H]3SC2)n2nc(C(=O)O)nc2n1 (stereo partly drawn) [Compound 17, (6R,7R)-7-[2-(2-amino-4-thiazolyl)-2-(3,4-dihydroxybenzoylamino)acetamido]-3-[(2-carboxy-5-methyl-s-triazolo [1,5-a]pyrimidin-7-yl)thiomethyl]-8-oxo-5-thia-1-azabicyclo[4.2.0]oct-2-ene-2-carboxylic acid] |  |  | < 0.05 µg/mL | < 0.05 µg/mL | 1.56 µg/mL (≈ 2.19 µM) | 3.13 µg/mL (≈ 4.39 µM) | < 0.05 µg/mL | 
